# Like-named read-outs stand apart in the source and are kept apart here. Positions of bridges follow the written chain, without caps; N, C: chain ends. Residues, ends and D or L forms follow the SMILES beside them.
# Target: hNav1.7 (Homo sapiens, UniProt Q15858)
# Assay: cell-based
# Format: cell-based
# Conditions: read-out: IWQ Use Nav1.7
# [1] = IonWorks Quattro, clamped to −110 mV, depolarized to −10 mV, 5 min after compound, n=2
# Chain of hNav1.7 (Q15858 whole entry, looked up): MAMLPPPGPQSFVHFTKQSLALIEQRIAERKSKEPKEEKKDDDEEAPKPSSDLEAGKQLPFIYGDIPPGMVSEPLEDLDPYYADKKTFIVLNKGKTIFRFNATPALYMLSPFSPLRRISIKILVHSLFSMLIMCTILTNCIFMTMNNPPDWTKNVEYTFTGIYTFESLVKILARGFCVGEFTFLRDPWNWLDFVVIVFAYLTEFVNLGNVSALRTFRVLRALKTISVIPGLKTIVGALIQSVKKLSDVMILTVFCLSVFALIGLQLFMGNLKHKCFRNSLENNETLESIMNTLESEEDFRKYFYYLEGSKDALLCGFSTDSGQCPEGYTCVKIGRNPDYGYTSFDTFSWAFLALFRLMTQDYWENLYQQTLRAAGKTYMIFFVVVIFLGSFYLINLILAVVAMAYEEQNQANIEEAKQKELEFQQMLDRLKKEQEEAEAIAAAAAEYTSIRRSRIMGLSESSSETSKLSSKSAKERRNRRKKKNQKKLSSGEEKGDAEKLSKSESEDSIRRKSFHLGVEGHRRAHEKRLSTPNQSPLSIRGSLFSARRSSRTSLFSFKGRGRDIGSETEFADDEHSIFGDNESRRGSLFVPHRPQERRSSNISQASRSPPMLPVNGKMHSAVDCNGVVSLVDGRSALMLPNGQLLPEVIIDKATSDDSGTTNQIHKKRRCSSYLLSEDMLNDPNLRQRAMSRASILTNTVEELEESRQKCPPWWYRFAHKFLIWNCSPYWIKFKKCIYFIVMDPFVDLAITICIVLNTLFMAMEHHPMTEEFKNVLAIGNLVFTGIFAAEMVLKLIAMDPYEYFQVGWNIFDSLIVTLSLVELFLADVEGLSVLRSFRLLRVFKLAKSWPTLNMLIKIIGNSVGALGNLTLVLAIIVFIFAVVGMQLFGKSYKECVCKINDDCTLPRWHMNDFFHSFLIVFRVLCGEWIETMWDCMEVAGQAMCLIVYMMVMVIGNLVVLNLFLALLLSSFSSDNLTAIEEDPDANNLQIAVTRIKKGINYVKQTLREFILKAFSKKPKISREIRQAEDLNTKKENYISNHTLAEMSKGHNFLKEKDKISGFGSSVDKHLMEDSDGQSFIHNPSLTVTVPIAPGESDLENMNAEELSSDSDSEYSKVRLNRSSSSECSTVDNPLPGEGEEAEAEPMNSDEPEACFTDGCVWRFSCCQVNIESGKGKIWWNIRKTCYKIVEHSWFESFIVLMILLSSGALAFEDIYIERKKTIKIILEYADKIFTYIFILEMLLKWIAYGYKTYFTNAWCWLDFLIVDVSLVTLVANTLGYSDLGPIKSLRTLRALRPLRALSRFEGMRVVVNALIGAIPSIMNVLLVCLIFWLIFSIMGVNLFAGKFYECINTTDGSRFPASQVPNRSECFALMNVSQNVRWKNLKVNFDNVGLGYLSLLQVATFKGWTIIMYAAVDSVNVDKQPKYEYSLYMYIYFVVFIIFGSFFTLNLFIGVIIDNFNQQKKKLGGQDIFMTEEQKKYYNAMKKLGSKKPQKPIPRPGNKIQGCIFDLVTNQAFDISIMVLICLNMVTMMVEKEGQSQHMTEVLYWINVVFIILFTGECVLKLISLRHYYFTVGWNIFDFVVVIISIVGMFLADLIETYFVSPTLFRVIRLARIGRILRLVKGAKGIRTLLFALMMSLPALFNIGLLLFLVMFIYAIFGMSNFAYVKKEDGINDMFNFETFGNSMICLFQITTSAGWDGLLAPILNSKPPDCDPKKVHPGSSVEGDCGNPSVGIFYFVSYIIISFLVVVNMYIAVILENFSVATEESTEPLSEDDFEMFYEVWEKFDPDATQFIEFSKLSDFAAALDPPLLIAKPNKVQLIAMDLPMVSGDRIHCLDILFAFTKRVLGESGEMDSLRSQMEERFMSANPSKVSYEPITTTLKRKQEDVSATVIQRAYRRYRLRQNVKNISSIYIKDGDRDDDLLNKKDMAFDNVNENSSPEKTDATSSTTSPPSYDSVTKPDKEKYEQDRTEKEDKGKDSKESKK
structure (smiles),measurement,setting,value
"CC[C@H](C)[C@@H]1NC(=O)[C@@H]2CSSC[C@@H]3NC(=O)[C@H](C(C)C)NC(=O)[C@H](CC(C)C)NC(=O)[C@H](CC(N)=O)NC(=O)[C@@H]4CCCN4C(=O)[C@H](CCCNC(=N)N)NC(=O)[C@H](CSSC[C@H](NC(=O)[C@@H](N)CCCNC(=N)N)C(=O)N[C@@H](CC(C)C)C(=O)NCC(=O)N[C@@H](Cc4ccccc4)C(=O)N[C@@H](CCSC)C(=O)N[C@@H](CCCNC(=N)N)C(=O)N[C@@H](CCCCN)C(=O)N2)NC(=O)[C@H](CSSC[C@@H](C(=O)N[C@@H](CCCCN)C(=O)N[C@@H](Cc2ccc(O)cc2)C(=O)N[C@H](C(=O)N[C@@H](Cc2ccccc2)C(N)=O)C(C)C)NC(=O)[C@H](Cc2c[nH]c4ccccc24)NC(=O)[C@H](CCCCN)NC(=O)[C@H](Cc2c[nH]cn2)NC(=O)[C@H]([C@@H](C)O)NC(=O)[C@H](CCCNC(=N)N)NC(=O)[C@H](CO)NC3=O)NC(=O)[C@H](CCCCN)NC(=O)[C@H](CC(=O)O)NC(=O)[C@H](CC(N)=O)NC(=O)[C@H](CC(=O)O)NC(=O)[C@@H]2CCCN2C1=O [SEQ ID NO: 62] (H-RCLGFMRKCIPDNDKCCRPNLVCSRTHKWCKYVF-NH2; disulfide 2-17, 9-23, 16-30)",IC50,,110 nM
"CSCC[C@@H]1NC(=O)[C@H](Cc2ccccc2)NC(=O)CNC(=O)[C@H](CC(C)C)NC(=O)[C@@H](NC(=O)[C@@H](N)CC(=O)O)CSSC[C@@H]2NC(=O)[C@@H]3CSSC[C@@H](C(=O)N[C@@H](CCCCN)C(=O)N[C@@H](Cc4ccc(O)cc4)C(=O)N[C@H](C(=O)N[C@@H](Cc4ccccc4)C(N)=O)C(C)C)NC(=O)[C@H](Cc4c[nH]c5ccccc45)NC(=O)[C@H](CCCCN)NC(=O)[C@H](Cc4c[nH]cn4)NC(=O)[C@H]([C@@H](C)O)NC(=O)[C@H](CCCNC(=N)N)NC(=O)[C@H](CO)NC(=O)[C@H](CSSC[C@H](NC(=O)[C@H](CCCCN)NC(=O)[C@H](CCCNC(=N)N)NC1=O)C(=O)N[C@@H](CC(=O)O)C(=O)N1CCC[C@H]1C(=O)N[C@@H](CC(=O)O)C(=O)N[C@@H](CC(N)=O)C(=O)N[C@@H](CC(=O)O)C(=O)N[C@@H](CCCCN)C(=O)N3)NC(=O)[C@H](C(C)C)NC(=O)[C@H](CC(C)C)NC(=O)[C@H](CC(N)=O)NC(=O)[C@@H]1CCCN1C(=O)[C@H](CCCNC(=N)N)NC2=O [SEQ ID NO: 119, [Asp10]GpTx-1] (H-DCLGFMRKCDPDNDKCCRPNLVCSRTHKWCKYVF-NH2; disulfide 2-17, 9-23, 16-30)",IC50,,220 nM
"CC[C@H](C)[C@@H]1NC(=O)[C@@H]2CSSC[C@@H]3NC(=O)[C@H](C(C)C)NC(=O)[C@H](CC(C)C)NC(=O)[C@H](CC(N)=O)NC(=O)[C@@H]4CCCN4C(=O)[C@H](CCCNC(=N)N)NC(=O)[C@H](CSSC[C@H](NC(=O)[C@@H](N)CC(=O)O)C(=O)N[C@@H](CC(C)C)C(=O)N[C@@H](C)C(=O)N[C@@H](Cc4ccccc4)C(=O)N[C@@H](CCSC)C(=O)N[C@@H](CCCNC(=N)N)C(=O)N[C@@H](CCCCN)C(=O)N2)NC(=O)[C@H](CSSC[C@@H](C(=O)N[C@@H](CCCCN)C(=O)N[C@@H](Cc2ccc(O)cc2)C(=O)N[C@H](C(=O)N[C@@H](Cc2ccccc2)C(N)=O)C(C)C)NC(=O)[C@H](Cc2c[nH]c4ccccc24)NC(=O)[C@H](CCCCN)NC(=O)[C@H](Cc2c[nH]cn2)NC(=O)[C@H]([C@@H](C)O)NC(=O)[C@H](CCCNC(=N)N)NC(=O)[C@H](CO)NC3=O)NC(=O)[C@H](CCCCN)NC(=O)[C@H](CC(=O)O)NC(=O)[C@H](CC(N)=O)NC(=O)[C@H](CC(=O)O)NC(=O)[C@@H]2CCCN2C1=O [SEQ ID NO: 141] (H-DCLAFMRKCIPDNDKCCRPNLVCSRTHKWCKYVF-NH2; disulfide 2-17, 9-23, 16-30)",IC50,[1],270 nM
"CC[C@H](C)[C@@H]1NC(=O)[C@@H]2CSSC[C@@H]3NC(=O)[C@H](C(C)C)NC(=O)[C@H](CC(C)C)NC(=O)[C@H](CC(N)=O)NC(=O)[C@@H]4CCCN4C(=O)[C@H](CCCNC(=N)N)NC(=O)[C@H](CSSC[C@H](NC(=O)[C@@H](N)CC(=O)O)C(=O)N[C@@H](CC(C)C)C(=O)NCC(=O)N[C@@H](Cc4ccccc4)C(=O)N[C@@H](CCC(=O)O)C(=O)N[C@@H](CCCNC(=N)N)C(=O)N[C@@H](CCCCN)C(=O)N2)NC(=O)[C@H](CSSC[C@@H](C(=O)N[C@@H](CCCCN)C(=O)N[C@@H](Cc2ccc(O)cc2)C(=O)N[C@H](C(=O)N[C@@H](Cc2ccccc2)C(N)=O)C(C)C)NC(=O)[C@H](Cc2c[nH]c4ccccc24)NC(=O)[C@H](CCCCN)NC(=O)[C@H](Cc2c[nH]cn2)NC(=O)[C@H]([C@@H](C)O)NC(=O)[C@H](CCCNC(=N)N)NC(=O)[C@H](CO)NC3=O)NC(=O)[C@H](CCCCN)NC(=O)[C@H](CC(=O)O)NC(=O)[C@H](CC(N)=O)NC(=O)[C@H](CC(=O)O)NC(=O)[C@@H]2CCCN2C1=O [SEQ ID NO: 144] (H-DCLGFERKCIPDNDKCCRPNLVCSRTHKWCKYVF-NH2; disulfide 2-17, 9-23, 16-30)",IC50,[1],3510 nM
"CSCC[C@@H]1NC(=O)[C@H](Cc2ccccc2)NC(=O)CNC(=O)[C@H](CC(C)C)NC(=O)[C@@H](NC(=O)[C@@H](N)CC(=O)O)CSSC[C@@H]2NC(=O)[C@@H]3CSSC[C@@H](C(=O)N[C@@H](CCCCN)C(=O)N[C@@H](Cc4ccc(O)cc4)C(=O)N[C@H](C(=O)N[C@@H](Cc4ccccc4)C(N)=O)C(C)C)NC(=O)[C@H](Cc4c[nH]c5ccccc45)NC(=O)[C@H](CCCCN)NC(=O)[C@H](Cc4c[nH]cn4)NC(=O)[C@H]([C@@H](C)O)NC(=O)[C@H](CCCNC(=N)N)NC(=O)[C@H](CO)NC(=O)[C@H](CSSC[C@H](NC(=O)[C@H](CCCCN)NC(=O)[C@H](CCCNC(=N)N)NC1=O)C(=O)N[C@@H](CCC(=O)O)C(=O)N1CCC[C@H]1C(=O)N[C@@H](CC(=O)O)C(=O)N[C@@H](CC(N)=O)C(=O)N[C@@H](CC(=O)O)C(=O)N[C@@H](CCCCN)C(=O)N3)NC(=O)[C@H](C(C)C)NC(=O)[C@H](CC(C)C)NC(=O)[C@H](CC(N)=O)NC(=O)[C@@H]1CCCN1C(=O)[C@H](CCCNC(=N)N)NC2=O [SEQ ID NO: 146, [Glu10]GpTx-1] (H-DCLGFMRKCEPDNDKCCRPNLVCSRTHKWCKYVF-NH2; disulfide 2-17, 9-23, 16-30)",IC50,"IonWorks Quattro, Use",90 nM
"CC[C@H](C)[C@@H]1NC(=O)[C@@H]2CSSC[C@@H]3NC(=O)[C@H](C(C)C)NC(=O)[C@H](CC(C)C)NC(=O)[C@H](CC(N)=O)NC(=O)[C@@H]4CCCN4C(=O)[C@H](CCCNC(=N)N)NC(=O)[C@H](CSSC[C@H](NC(=O)[C@@H](N)CC(=O)O)C(=O)N[C@@H](CC(C)C)C(=O)NCC(=O)N[C@@H](Cc4ccccc4)C(=O)N[C@@H](CCSC)C(=O)N[C@@H](CCCNC(=N)N)C(=O)N[C@@H](CCCCN)C(=O)N2)NC(=O)[C@H](CSSC[C@@H](C(=O)N[C@@H](CCCCN)C(=O)N[C@@H](Cc2ccc(O)cc2)C(=O)N[C@H](C(=O)N[C@@H](Cc2ccccc2)C(N)=O)C(C)C)NC(=O)[C@H](Cc2c[nH]c4ccccc24)NC(=O)[C@H](CCCCN)NC(=O)[C@H](Cc2c[nH]cn2)NC(=O)[C@H]([C@@H](C)O)NC(=O)[C@H](CCCNC(=N)N)NC(=O)[C@H](CO)NC3=O)NC(=O)[C@H](CCCCN)NC(=O)[C@H](CC(=O)O)NC(=O)[C@H](CC(N)=O)NC(=O)[C@H](CC(=O)O)NC(=O)[C@H](CCC(=O)O)NC1=O [SEQ ID NO: 147, [Glu11]GpTx-1] (H-DCLGFMRKCIEDNDKCCRPNLVCSRTHKWCKYVF-NH2; disulfide 2-17, 9-23, 16-30)",IC50,"IonWorks Quattro, Use",220 nM
"CC[C@H](C)[C@@H]1NC(=O)[C@@H]2CSSC[C@@H]3NC(=O)[C@H](C(C)C)NC(=O)[C@H](CC(C)C)NC(=O)[C@H](CC(N)=O)NC(=O)[C@@H]4CCCN4C(=O)[C@H](CCCNC(=N)N)NC(=O)[C@H](CSSC[C@H](NC(=O)[C@@H](N)CC(=O)O)C(=O)N[C@@H](CC(C)C)C(=O)NCC(=O)N[C@@H](Cc4ccccc4)C(=O)N[C@@H](CCSC)C(=O)N[C@@H](CCCNC(=N)N)C(=O)N[C@@H](CCCCN)C(=O)N2)NC(=O)[C@H](CSSC[C@@H](C(=O)N[C@@H](CCCCN)C(=O)N[C@@H](Cc2ccc(O)cc2)C(=O)N[C@H](C(=O)N[C@@H](Cc2ccccc2)C(N)=O)C(C)C)NC(=O)[C@H](Cc2c[nH]c4ccccc24)NC(=O)[C@H](CCC(=O)O)NC(=O)[C@H](Cc2c[nH]cn2)NC(=O)[C@H]([C@@H](C)O)NC(=O)[C@H](CCCNC(=N)N)NC(=O)[C@H](CO)NC3=O)NC(=O)[C@H](CCCCN)NC(=O)[C@H](CC(=O)O)NC(=O)[C@H](CC(N)=O)NC(=O)[C@H](CC(=O)O)NC(=O)[C@@H]2CCCN2C1=O [SEQ ID NO: 153, [Glu28]GpTx-1(1-34)] (H-DCLGFMRKCIPDNDKCCRPNLVCSRTHEWCKYVF-NH2; disulfide 2-17, 9-23, 16-30)",IC50,"Table 23, IonWorks Quattro, use, […]",340 nM
"CC[C@H](C)[C@@H]1NC(=O)[C@@H]2CSSC[C@@H]3NC(=O)[C@H](C(C)C)NC(=O)[C@H](CC(C)C)NC(=O)[C@H](CC(N)=O)NC(=O)[C@@H]4CCCN4C(=O)[C@H](CCCNC(=N)N)NC(=O)[C@H](CSSC[C@H](NC(=O)[C@@H](N)CC(=O)O)C(=O)N[C@@H](CCCNC(=N)N)C(=O)NCC(=O)N[C@@H](Cc4ccccc4)C(=O)N[C@@H](CCSC)C(=O)N[C@@H](CCCNC(=N)N)C(=O)N[C@@H](CCCCN)C(=O)N2)NC(=O)[C@H](CSSC[C@@H](C(=O)N[C@@H](CCCCN)C(=O)N[C@@H](Cc2ccc(O)cc2)C(=O)N[C@H](C(=O)N[C@@H](Cc2ccccc2)C(N)=O)C(C)C)NC(=O)[C@H](Cc2c[nH]c4ccccc24)NC(=O)[C@H](CCCCN)NC(=O)[C@H](Cc2c[nH]cn2)NC(=O)[C@H]([C@@H](C)O)NC(=O)[C@H](CCCNC(=N)N)NC(=O)[C@H](CO)NC3=O)NC(=O)[C@H](CCCCN)NC(=O)[C@H](CC(=O)O)NC(=O)[C@H](CC(N)=O)NC(=O)[C@H](CC(=O)O)NC(=O)[C@@H]2CCCN2C1=O [SEQ ID NO: 155] (H-DCRGFMRKCIPDNDKCCRPNLVCSRTHKWCKYVF-NH2; disulfide 2-17, 9-23, 16-30)",IC50,,30 nM
